Reference: patent publication US20250236629A1, “MEDIUM- OR MACRO-CYCLIC BENZYL-SUBSTITUTED HETEROCYCLE DERIVATIVES AND RELATED USES” (CENTESSA PHARMACEUTICALS (UK) LIMITED, priority 2022, published 2025)
Like-named read-outs stand apart in the source and are kept apart here.

What was measured:
[1] = DCM
OX2R = target: T1, OX2R (Mus musculus, UniProt P58308); conditions: cited from earlier work
T1 construct: host or cells: mice (WT, orexin-deficient and NT1 models), endogenous receptor in brain
T1 sequence (P58308 1-460): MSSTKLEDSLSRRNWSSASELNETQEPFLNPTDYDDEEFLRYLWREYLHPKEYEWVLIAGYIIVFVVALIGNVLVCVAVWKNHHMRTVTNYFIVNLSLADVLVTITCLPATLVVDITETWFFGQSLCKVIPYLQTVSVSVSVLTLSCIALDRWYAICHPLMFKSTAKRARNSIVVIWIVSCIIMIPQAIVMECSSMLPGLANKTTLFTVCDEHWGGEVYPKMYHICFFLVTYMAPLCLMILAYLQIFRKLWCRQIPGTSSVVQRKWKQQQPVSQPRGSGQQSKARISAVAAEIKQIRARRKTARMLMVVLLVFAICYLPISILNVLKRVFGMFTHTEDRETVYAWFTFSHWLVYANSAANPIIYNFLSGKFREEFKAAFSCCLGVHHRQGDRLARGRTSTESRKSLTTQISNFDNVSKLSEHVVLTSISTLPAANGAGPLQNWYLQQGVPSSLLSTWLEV

[2] = target: T2, human orexin type 2 receptor (hOX2R) (Homo sapiens, UniProt O43614); experiment: Orexin type 2 receptor agonist activity, intracellular Ca2+ (FLIPR TETRA) in CHO cells; assay type: cell-based; conditions: CHO cells expressing hOX2R; Ca2+ fluorescence area; 100% = 10 nM human orexin A; read-out: hOx2 pEC50 (converted)
T2 construct: the Orexin receptor cDNA was inserted into pcDNA3.1(+) plasmid vector; expressed in transfected cells
T2 sequence (O43614 1-444): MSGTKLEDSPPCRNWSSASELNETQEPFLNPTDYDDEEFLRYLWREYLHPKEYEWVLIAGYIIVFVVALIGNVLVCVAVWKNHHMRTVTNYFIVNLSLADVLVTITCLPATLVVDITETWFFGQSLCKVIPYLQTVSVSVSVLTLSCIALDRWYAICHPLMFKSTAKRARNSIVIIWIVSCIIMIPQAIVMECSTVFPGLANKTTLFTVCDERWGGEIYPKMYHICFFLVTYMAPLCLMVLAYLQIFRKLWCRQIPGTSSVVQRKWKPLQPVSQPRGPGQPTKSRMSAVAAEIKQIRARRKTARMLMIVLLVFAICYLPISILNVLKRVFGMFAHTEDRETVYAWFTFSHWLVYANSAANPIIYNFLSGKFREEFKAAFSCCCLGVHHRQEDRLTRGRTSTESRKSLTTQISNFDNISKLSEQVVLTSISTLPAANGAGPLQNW
Method: Stable cell line generation. Obtainment of cells stably expressing either human orexin type 2 or human orexin type 1 receptor: to obtain a stable cell line the Orexin receptor cDNA was inserted into pcDNA3.1(+) plasmid vector and clones identified by G418 drug resistance selection. […] A single clone for OX2R—CHO and OX1R—CHO were grown in bulk and frozen to generate a cell bank for routine screening.
Measurement of orexin type 2 receptor agonist activity. Chinese hamster ovary (CHO) cells expressing human orexin type 2 receptor (hOX2R) or human orexin type 1 receptor (hOX1R) were seeded in each well of 384 well black clear bottom plates (BD Flacon) at 10,000 cells per well and cultured for 24 hr in an Ham's F12 (Gibco) medium containing 10% fetal calf serum (Sigma Aldrich) under the conditions of 37° C., 5% CO2. After removal of the medium, 50 μl of assay buffer 1 (0.1% bovine serum albumin (Sigma Aldrich), 20 mM HEPES (Molecular Dimensions), […] probenecid (Sigma Aldrich), 1× Calcium 5 dye (Molecular Devices) in Hank's balanced salt solution (Invitrogen)) was added, and the cells were incubated for 60 min under the conditions of 37° C., 5% CO2. A test compound was dissolved in dimethyl sulfoxide (Sigma Aldrich) to 10 mM, and then diluted with assay buffer 2 (20 mM HEPES, Hank's balanced salt solution, 0.1% bovine serum albumin). For the reaction, a test compound solution (10 μl) was added using Fluorescent Imaging Plate Reader TETRA (FLIPR TETRA: manufactured by Molecular Devices), a fluorescence value (excitation wavelength 488 nm, measurement wavelength 570 nm) of each well was measured every one second for 2 min, and the agonist activity was determined using the area of the fluorescence value as an indicator of intracellular Ca^2+ concentration. The agonist activity of the test compound was calculated assuming that the fluorescence value of the well added with only the dilution buffer was 0% and the fluorescence value of the well added with 10 nM human orexin A (Tocris) buffer was 100%.
Values of hOx2 pEC50 in Table B are presented in ranges, in which 6.0≤“+”<7.0, 7.0≤“++”<8.0, 8.0≤“+++”<9.0, and 9.0≤“++++”<10.4.

[3] = system: wild type (WT) colony mates; experiment: Wake-promoting efficacy of oral small molecules, piezoelectric sleep/wake monitoring, WT mice; assay type: in vivo, mouse; conditions: dosed 5 h after light onset
Method: (§1) Wake-promoting efficacy of oral small molecules. Wake-promoting efficacy was evaluated in the […]) mouse model of NT1 and wild type (WT) colony mates. Mice were monitored in home cages using piezoelectric sensors for rapid, non-invasive classification of sleep and wakefulness by unsupervised machine learning on physiologically relevant readouts, such as body movement and breath rate. Piezoelectric detection is highly correlated with conventional time-intensive electroencephalogram/electromyography measures of sleep/wake states in both WT and NT1 mice. In a counterbalanced, repeated-measures design, mice were orally dosed at 5 h after light onset with test articles and vehicle.

[4] = system: B6.Cg-Tg(HCRT-MJD)1Stak/J (Atax) mouse model of NT1; experiment: Wake-promoting efficacy of oral small molecules, piezoelectric sleep/wake monitoring, Atax mice; assay type: in vivo; conditions: dosed 5 h after light onset
Method: as §1

[5] = DCM; remark: listed apart in the source

Molecule: CNCCOc1ccccc1-c1cccc(C[C@@H]2NCC3(CC3)[C@@H]2NS(=O)(=O)C(F)F)c1F
- ring closure, yield after HPLC ([1]; the molecule shown is the open-chain precursor, other bond, 13-membered ring, triphosgene/TEA, then K2CO3, then MeCN, 0.2 mM, 60.0 °C): 16%

Molecule: COc1ccc(-c2cccc(C(=O)N(C)C)c2)cc1S(=O)(=O)Nc1cccc(NCCNC(=O)c2ccccc2N(C)C)c1 [YNT-185]
- sleep-onset REM periods and cataplexy-like events (OX2R; NT1 mouse model): decrease sleep-onset REM periods and cataplexy-like events
- wakefulness (OX2R; intraperitoneally or ICV, wild type (WT) and orexin ligand-deficient mice): modestly increases wakefulness

Molecule: O=C1CCOc2c(F)cc(F)cc2-c2cccc(c2F)C[C@H]2[C@@H](NS(=O)(=O)C3(F)CC3)[C@@H](F)CCN12 [Example 43, 1-fluoro-N-((4^2S,4^3R,4^4S)-1^3,1^5,2^2,4^4-tetrafluoro-5-oxo-8-oxa-4 (2,1)-piperidina-1 (1,2),2 (1,3)-dibenzenacyclooctaphane-4^3-yl)cyclopropane-1-sulfonamide]
- ring closure, yield after HPLC ([1]; from O=C(O)CCOc1c(F)cc(F)cc1-c1cccc(C[C@@H]2NCC[C@H](F)[C@@H]2NS(=O)(=O)C2(F)CC2)c1F, amide bond, 12-membered ring, DMC (2-chloro-1,3-dimethylimidazolinium chloride)/DIEA, 0.148 mM, 20.0 °C, 4.0 h): 77%
- EC50 [2]: 0.0398 to 1 nM

Molecule: O=C1CCOc2c(F)cccc2-c2cccc(c2F)C[C@H]2[C@@H](NS(=O)(=O)CF)[C@@H](F)CCN12 [Example 42, 1-fluoro-N-((4^2S,4^3R,4^4S)-1^3,2^2,4^4-trifluoro-5-oxo-8-oxa-4 (2,1)-piperidina-1 (1,2),2 (1,3)-dibenzenacyclooctaphane-4^3-yl)methanesulfonamide]
- Wake % time 1 h post dose (increase from vehicle) ([3]; oral dose 3 mg/kg): 17.1%
- Wake % time 1 h post dose (increase from vehicle) ([3]; oral dose 10 mg/kg): 22.8%
- Wake % time 1 h post dose (increase from vehicle) ([3]; oral dose 30 mg/kg): 37.7%
- Wake % time 1 h post dose (increase from vehicle) ([4]; oral dose 1 mg/kg): 33.7%
- Wake % time 1 h post dose (increase from vehicle) ([4]; oral dose 3 mg/kg): 34.2%
- EC50 [2]: 0.0398 to 1 nM

Molecule: 1,1-difluoro-N-((4^2S,4^3R)-1^3,4^4,4^4-trifluoro-6-methyl-5-oxo-9-oxa-6-aza-4 (2,1)-pyrrolidina-1 (1,2),2 (1,3)-dibenzenacyclononaphane-4^3-yl) methanesulfonamide_cis racemic
- ring closure, isolated yield ([5]; other bond, 13-membered ring, triphosgene/TEA, then K2CO3, then MeCN, 0.4 mM, 20.0 °C): 28.5%

Molecule: O=C1CCOc2c(F)cc(F)cc2-c2cccc(c2F)C[C@H]2[C@@H](NS(=O)(=O)C3(F)CC3)CCCN12 [Example 47, 1-fluoro-N-((4^2S,4^3S)-1^3,1^5,2^2-trifluoro-5-oxo-8-oxa-4 (2,1)-piperidina-1 (1,2),2 (1,3)-dibenzenacyclooctaphane-4^3-yl)cyclopropane-1-sulfonamide]
- Wake % time 1 h post dose (increase from vehicle) ([3]; oral dose 1 mg/kg): 20.7%
- Wake % time 1 h post dose (increase from vehicle) ([3]; oral dose 3 mg/kg): 37.6%
- Wake % time 1 h post dose (increase from vehicle) ([3]; oral dose 10 mg/kg): 39.0%
- Wake % time 1 h post dose (increase from vehicle) ([4]; oral dose 0.3 mg/kg): 41.3%
- Wake % time 1 h post dose (increase from vehicle) ([4]; oral dose 1 mg/kg): 41.8%
- Wake % time 1 h post dose (increase from vehicle) ([4]; oral dose 3 mg/kg): 40.4%
- ring closure, isolated yield ([5]; from O=C(O)CCOc1c(F)cc(F)cc1-c1cccc(C[C@@H]2NCCC[C@@H]2NS(=O)(=O)C2(F)CC2)c1F, amide bond, 12-membered ring, DMC (2-chloro-1,3-dimethylimidazolinium chloride)/DIEA, 1.56 mM, 25.0 °C, 1.0 h): 44%
- EC50 [2]: 0.0398 to 1 nM

Molecule: O=C1CCOc2c(F)cccc2-c2cccc(c2)C[C@H]2[C@@H](NS(=O)(=O)C3(F)CC3)CCCN12 [Example 49, 1-fluoro-N-((4^2S,4^3S)-1^3-fluoro-5-oxo-8-oxa-4 (2,1)-piperidina-1 (1,2),2 (1,3)-dibenzenacyclooctaphane-4^3-yl)cyclopropane-1-sulfonamide]
- ring closure, yield after HPLC ([1]; from O=C(O)CCOc1c(F)cccc1-c1cccc(C[C@@H]2NCCC[C@@H]2NS(=O)(=O)C2(F)CC2)c1, amide bond, 12-membered ring, DMC (2-chloro-1,3-dimethylimidazolinium chloride)/DIEA, 1.84 mM, 20.0 °C, 4.0 h): 71%
- EC50 [2]: 0.0398 to 1 nM

Molecule: O=C1CCCN2C(=O)CCOc3ccccc3-c3cccc(c3F)CC12 (stereo not shown)
- ring closure, isolated yield ([5]; from O=C(O)CCOc1ccccc1-c1cccc(CC2NCCCC2=O)c1F, amide bond, 12-membered ring, DMC (2-chloro-1,3-dimethylimidazolinium chloride)/DIEA, 2.7 mM, 25.0 °C, 12.0 h): 53%

Molecule: O=C1CCCN2C(=O)CCOc3ccccc3-c3cccc(c3)CC12 (stereo not shown)
- ring closure, isolated yield ([5]; from O=C(O)CCOc1ccccc1-c1cccc(CC2NCCCC2=O)c1, amide bond, 12-membered ring, DMC (2-chloro-1,3-dimethylimidazolinium chloride)/DIEA, 2.56 mM, 25.0 °C, 12.0 h): 52%

Molecule: O=C1CCOc2c(F)cccc2-c2cccc(c2F)C[C@H]2[C@@H](NS(=O)(=O)C3(F)CC3)CCCN12 [Example 48, N-((4^2S,4^3S)-13,22-difluoro-5-oxo-8-oxa-4 (2,1)-piperidina-1 (1,2),2 (1,3)-dibenzenacyclooctaphane-4^3-yl)-1-fluorocyclopropane-1-sulfonamide]
- Wake % time 1 h post dose (increase from vehicle) ([3]; oral dose 3 mg/kg): 18.6%
- Wake % time 1 h post dose (increase from vehicle) ([3]; oral dose 10 mg/kg): 34.8%
- Wake % time 1 h post dose (increase from vehicle) ([4]; oral dose 0.3 mg/kg): 44.4%
- Wake % time 1 h post dose (increase from vehicle) ([4]; oral dose 1 mg/kg): 40.5%
- Wake % time 1 h post dose (increase from vehicle) ([4]; oral dose 3 mg/kg): 48.0%
- EC50 [2]: 0.0398 to 1 nM

Molecule: O=C1CCOc2c(F)cccc2-c2cccc(c2F)C[C@H]2[C@@H](NS(=O)(=O)C3(F)CC3)[C@@H](F)CCN12 [Example 44, 1-fluoro-N-((4^2S,4^3R,4^4S)-1^3,2^2,4^4-trifluoro-5-oxo-8-oxa-4 (2,1)-piperidina-1 (1,2),2 (1,3)-dibenzenacyclooctaphane-4^3-yl)cyclopropane-1-sulfonamide]
- ring closure, yield after HPLC ([1]; from O=C(O)CCOc1c(F)cccc1-c1cccc(C[C@@H]2NCC[C@H](F)[C@@H]2NS(=O)(=O)C2(F)CC2)c1F, amide bond, 12-membered ring, DMC (2-chloro-1,3-dimethylimidazolinium chloride)/DIEA, 0.165 mM, 25.0 °C, 4.0 h): 42%
- EC50 [2]: 0.0398 to 1 nM

Molecule: O=C1CCOc2c(F)cc(F)cc2-c2cccc(c2F)C[C@H]2[C@@H](NS(=O)(=O)CF)[C@@H](F)CCN12 [Example 41, 1-fluoro-N-((4^2S,4^3R,4^4S)-1^3,1^5,2^2,4^4-tetrafluoro-5-oxo-8-oxa-4 (2,1)-piperidina-1 (1,2),2 (1,3)-dibenzenacyclooctaphane-4^3-yl)methanesulfonamide]
- Wake % time 1 h post dose (increase from vehicle) ([3]; oral dose 10 mg/kg): 28.0%
- Wake % time 1 h post dose (increase from vehicle) ([3]; oral dose 30 mg/kg): 31.5%
- Wake % time 1 h post dose (increase from vehicle) ([4]; oral dose 1 mg/kg): 32.4%
- Wake % time 1 h post dose (increase from vehicle) ([4]; oral dose 3 mg/kg): 38.2%
- EC50 [2]: 0.0398 to 1 nM
